# Test results taken from patent publication US20260262642A1, “Compositions Containing Guanidine and 1,2-Benzisothiazoline-3-On” (priority 2023, published 2026).
# Counter-ions that a name gives are not always drawn.
# Legend:
# Format in all cases: cell-based
# [1] = test system: Yeast mixture (Pichia manshurica DSM 12249, Rhodotorula mucilaginosa DSM 12248, Candida boidinii DSM 13622, Candida albicans DSM 1386); test: Stability of all-purpose detergent (cleaning composition) against microbial infestation, inoculated with yeast mixture, semiquantitative streak evaluation; set-up: key to Yeast growth Day 1: 0: No growth; Minimal growth, 1 to 10 colonies visible over the entire streak; 2: Light growth, maximum 100 colonies; Moderate growth, maximum 300 to 400 colonies; Uniform growth, >400 colonies, single colonies still clearly recognizable; 5: Heavy growth, too many colonies to count, but no growth over the entire streak; 6: Full growth, barely any single colonies still apparent, growth over the entire streak; conditions: for Yeast growth Day 1: directly after inoculation; for Yeast growth Day 3: incubation at 30° C.
# Method: (§1) The detergent was a heavy-duty laundry detergent without preservatives (pH 8.1), and the cleaning composition was an all-purpose detergent without preservatives (pH 7.6), each likewise made in the laboratory, without addition of the otherwise usual conventional preservatives. To each paint was added—individually and in combination—particular concentrations of guanidinium hydrochloride and benzisothiazolinone (BIT). The detergent and cleaning composition were admixed with particular concentrations of guanidinium hydrochloride and benzisothiazolinone (BIT). The resultant batches of the paint thus prepared were inoculated with a mixture of various bacteria; the batches of the detergent and cleaning composition thus prepared were inoculated with a yeast mixture. • Pichia manshurica DSM 12249 • Rhodotorula mucilaginosa DSM 12248 • Candida boidinii DSM 13622 • Candida albicans DSM 1386 The inoculum was added to the respective sample in each inoculation at 2% (v/w) as a fresh cell suspension in a physiological saline solution (0.9% NaCl). The cell count of the inoculum added was 10^9/ml for the bacteria mixture, 10^8/ml for the yeast mixture, consisting in equal parts of the individual bacteria strains or yeast strains. The cell suspension of the yeast mixture was produced by growing the yeasts on Sabouraud glucose-agar at 25° C. for 48 hours and washing down the cell lawn with physiological saline solution (0.9% NaCl). Further steps for establishment of a cell count of the inoculum suspension of 10^8/ml were effected analogously to the production of the bacteria suspension. In examples 2 to 4, the samples were inoculated once with the respective cell suspensions (2% v/w) and the development of the bacteria or yeasts was followed by a semiquantitative evaluation method. In the inoculated samples, microbial infestation was evaluated in each case directly after inoculation on day 1 and on day 6 (emulsion paint) after incubation at 30° C. for a further 5 days, or on day 3 (detergent, cleaning composition) after incubation at 30° C. for a further 2 days. For this purpose, an aliquot was taken from each sample after homogenization using a sterile plastic inoculation loop (10 μl) and streaked evenly on agar plates (tryptic soy agar in the case of bacteria, Sabouraud glucose-agar in the case of yeasts). The streaked agar plates were then incubated at 30° C. for 48 hours (bacteria) or at 25° C. for 72 hours (yeasts). After incubation, the bacterial or yeast colonies that had grown on the agar plates were visually evaluated and quantified according to the following scheme: [table] Inoculation 2% (w/v) with Yeast Mixture, Cell Count 10^8/ml
# [2] = test system: Bacteria mixture (Pseudomonas spp. DSM 33933, Pseudomonas aeruginosa DSM 33935, Pseudomonas oleovorans DSM 33936, Pseudomonas spec. DSM 33937, Pseudomonas …); test: Stability of emulsion paint against microbial infestation, inoculated with bacteria mixture, semiquantitative streak evaluation; set-up: key: 0: No growth; Minimal growth, 1 to 10 colonies visible over the entire streak; 2: Light growth, maximum 100 colonies; Moderate growth, maximum 300 to 400 colonies; Uniform growth, >400 colonies, single colonies still clearly recognizable; 5: Heavy growth, too many colonies to count, but no growth over the entire streak; 6: Full growth, barely any single colonies still apparent, growth over the entire streak; conditions: for Bacterial growth Day 1: directly after inoculation; for Bacterial growth Day 6: incubation at 30° C.
# Method: The detergent was a heavy-duty laundry detergent without preservatives (pH 8.1), and the cleaning composition was an all-purpose detergent without preservatives (pH 7.6), each likewise made in the laboratory, without addition of the otherwise usual conventional preservatives. To each paint was added—individually and in combination—particular concentrations of guanidinium hydrochloride and benzisothiazolinone (BIT). The detergent and cleaning composition were admixed with particular concentrations of guanidinium hydrochloride and benzisothiazolinone (BIT). The resultant batches of the paint thus prepared were inoculated with a mixture of various bacteria; the batches of the detergent and cleaning composition thus prepared were inoculated with a yeast mixture. • Pseudomonas spp. (Pseudomonas oleovorans group) DSM 33933 • Pseudomonas aeruginosa DSM 33935 • Pseudomonas oleovorans DSM 33936 • Pseudomonas spec. DSM 33937 • Pseudomonas aeruginosa DSM 33938 The inoculum was added to the respective sample in each inoculation at 2% (v/w) as a fresh cell suspension in a physiological saline solution (0.9% NaCl). The cell count of the inoculum added was 10^9/ml for the bacteria mixture, 10^8/ml for the yeast mixture, consisting in equal parts of the individual bacteria strains or yeast strains. The cell suspension of the bacteria mixture was produced by growing the individual bacteria at 30° C. for 24 h in liquid culture on a shaker. The growth medium used for the bacteria was Müller-Hinton liquid medium. After growing, the individual liquid cultures were centrifuged, and the cells were resuspended in physiological saline solution. In order to adjust the mixture to a total cell count of 10^9/ml, the individual bacteria suspensions, if necessary, were diluted accordingly before being combined with saline solution. The cell count of the inoculum was determined in each case by chamber counting. In examples 2 to 4, the samples were inoculated once with the respective cell suspensions (2% v/w) and the development of the bacteria or yeasts was followed by a semiquantitative evaluation method. In the inoculated samples, microbial infestation was evaluated in each case directly after inoculation on day 1 and on day 6 (emulsion paint) after incubation at 30° C. for a further 5 days, or on day 3 (detergent, cleaning composition) after incubation at 30° C. for a further 2 days. For this purpose, an aliquot was taken from each sample after homogenization using a sterile plastic inoculation loop (10 μl) and streaked evenly on agar plates (tryptic soy agar in the case of bacteria, Sabouraud glucose-agar in the case of yeasts). […] After incubation, the bacterial or yeast colonies that had grown on the agar plates were visually evaluated and quantified according to the following scheme: [table] […]
# [3] = test system: Yeast mixture (Pichia manshurica DSM 12249, Rhodotorula mucilaginosa DSM 12248, Candida boidinii DSM 13622, Candida albicans DSM 1386); test: Stability of heavy-duty laundry detergent against microbial infestation, inoculated with yeast mixture, semiquantitative streak evaluation; set-up: key: 0: No growth; Minimal growth, 1 to 10 colonies visible over the entire streak; 2: Light growth, maximum 100 colonies; Moderate growth, maximum 300 to 400 colonies; Uniform growth, >400 colonies, single colonies still clearly recognizable; 5: Heavy growth, too many colonies to count, but no growth over the entire streak; 6: Full growth, barely any single colonies still apparent, growth over the entire streak; conditions: for Yeast growth Day 1: directly after inoculation; for Yeast growth Day 3: incubation at 30° C.
# Method: as §1, with “w/v” for “(w/v)”, “a East” for “Yeast”
# [4] = test system: Pseudomonas spec. DSM 115322; test: Study of the synergistic interaction: minimum inhibitory concentrations (MICs) and synergy index in Müller-Hinton broth, microplates; conditions: 48 hours at 30° C.; for Synergy index Qa/QA + Qb/QB: sole agent
# Method: The test organism used was a Gram-negative bacterial species from the group of pseudomonads, Pseudomonas spec. DSM 115322. For this purpose, mixtures with different concentrations of the respective actives were prepared and tested for their effect on pseudomonads. The test was run in Müller-Hinton broth MHB with a cell density of 10^6 microbes per ml. The incubation was run in microplates at 30° C. for 48 hours. After 48 hours, the batches were evaluated for turbidity resulting from growth, and optical density was additionally determined photometrically. In this way, the minimum inhibitory concentrations (MICs) of the two actives were determined individually and in combination. The synergism that occurred was represented numerically by calculating the synergy index (SI). The calculation was done according to the standard method of F. C. Kull et al., Applied Microbiology, vol. 9 (1961), p. 538. This involves calculating the synergy index (SI) by the following formula: […] Calculation of the synergy index of guanidine and BIT with respect to Pseudomonas spec.
# [5] = all-purpose detergent +100 ppm BIT
# [6] = all-purpose detergent +8000 ppm guanidine hydrochloride (4944 ppm guanidine)
# [7] = emulsion paint +6000 ppm guanidine hydrochloride (3708 ppm guanidine)
# [8] = detergent +8000 ppm guanidine hydrochloride (4944 ppm guanidine)
SMILES,"Yeast growth Day 1 [1, 5]","Yeast growth Day 3 [1, 5]",Bacterial growth Day 1 ([2]; emulsion paint +500 ppm BIT),Bacterial growth Day 6 ([2]; emulsion paint +500 ppm BIT),Yeast growth Day 1 ([3]; detergent +100 ppm BIT),Yeast growth Day 3 ([3]; detergent +100 ppm BIT),"Qb (BIT): concentration of BIT as the sole agent that shows an endpoint (QB, MIC) ([4]; BIT alone (0 ppm guanidine), MHB, 10^6 microbes per ml) [ppm]",Synergy index Qa/QA + Qb/QB [4],"Yeast growth Day 1 [1, 6]","Yeast growth Day 3 [1, 6]","Bacterial growth Day 1 [2, 7]","Bacterial growth Day 6 [2, 7]","Yeast growth Day 1 [3, 8]","Yeast growth Day 3 [3, 8]","Qa (guanidine): concentration of guanidine as the sole agent that shows an endpoint (QA, MIC) ([4]; guanidine alone (0 ppm BIT), added as guanidine hydrochloride, MHB) [ppm]"
"O=c1[nH]sc2ccccc12 [BIT, 1,2-benzisothiazolin-3-one]",6,"4 (Uniform growth, >400 colonies, single colonies still clearly recognizable)",6,6,6,"4 (Uniform growth, >400 colonies, single colonies still clearly recognizable)",300,1.00,–,–,–,–,–,–,–
N=C(N)N [guanidine hydrochloride],–,–,–,–,–,–,–,–,6,"4 (Uniform growth, >400 colonies, single colonies still clearly recognizable)",6,6,6,6,–
N=C(N)N [guanidine],–,–,–,–,–,–,–,1.00,–,–,–,–,–,–,9269
